“And” between values parts separate entries of the source, which are not always exact repeats. Equal values may be shown once.
Tests used:
[1] = MTT assay for cell viability; type: cell-based, mouse; conditions: mouse, RAW264.7 macrophage cells, 24 h, RAW264.7 cells
Experimental: The RAW 264.7 mouse macrophage cell line was obtained from the China Cell Line Bank (Beijing, China). Cells were cultured in complete medium (DMEM supplemented with 10% heat-inactivated FBS, 3 mM glutamine and antibiotics (100 U/mL penicillin and 100 U/mL streptomycin)) at 37 °C in a humidified incubator containing 5% CO2 and 95% air. […]
Cell viability studies induced by synthesised compounds were evaluated by 3-(4,5-dimethylthiazol-2-yl)-2,5-diphenyltetrazolium bromide (MTT) assay. RAW264.7 macrophages were seeded in 96-well plates at a density of 5 × 10^5 cells/mL in complete medium and incubated for 24 h (100 µL/well). Then the cells were treated with different concentrations of synthesised compounds for 24 h. 150 µL MTT (5 g/L in PBS) was added to each well and the cells were further incubated for 4 h. The supernatant was removed and the cells were lysed with 150 µL/well DMSO. The optical density was measured at 570 nm on a microplate reader (Thermo Scientific, MA, USA).

[2] = system: LPS-induced NO production in RAW264.7 macrophages; assay: Inhibition of LPS-induced NO production (Griess); type: cell-based, mouse; conditions: 10 µM
Experimental: The RAW 264.7 mouse macrophage cell line was obtained from the China Cell Line Bank (Beijing, China). Cells were cultured in complete medium (DMEM supplemented with 10% heat-inactivated FBS, 3 mM glutamine and antibiotics (100 U/mL penicillin and 100 U/mL streptomycin)) at 37 °C in a humidified incubator containing 5% CO2 and 95% air. Cells were treated with various concentrations of synthesised compounds for 30 min followed by stimulation with LPS ([…]).
Nitrite, a stable product of nitric oxide, was used to assess NO production. To study the effects of the isolated compounds on NO production, RAW264.7 cells were plated at 1 × 10^5 cells/well in a 96-well microplate and incubated overnight. The cells were pre-treated with various concentrations of the test compounds (3, 7.5, 10, 15, 30 or 100 µM) and further co-cultured with 1 µg/mL LPS for 24 h. Un-pre-treated and un-stimulated RAW 264.7 cells were conducted as the blank control group. At different time points, the supernatant (50 µL) was assayed with NO assay kit. The culture supernatant (50 µL) was mixed with an equal volume of the Griess reagent (1% sulphanilamide, 0.1% N-[1-naphthy] ethylenediamine dihydrochloride) and NO production were determined at 540 nm with an ELISAplate reader.

[3] = system: carrageenan-induced paw oedema; assay: Carrageenan-induced paw oedema model; type: in vivo, rats; conditions: 25 mg/kg p.o., n = 4
From the text: The animal procedures were in strict accordance with the National Institutes of Healthy Guidelines for the Care and Use of Laboratory Animals (NIH Publication No. 85-23, revised 1996) and were approved by the Institutional Animal Care and Utilisation Committee of Yanbian University. Male albino rats weighing 280–300 gwere obtained from Animal Department of Yanbian University . They were kept in the animal house under standard condition of light and temperature with free access to food and water. The animals were randomly divided into five groups (control, D1, 6p, ibuprofen and celecoxib group) The groups with D1, 6p, ibuprofen and celecoxib were administered oral administration (p.o.) 25 mg/kg in a vehicle of 0.5% methylcellulose, respectively. The negative control group was treated with the same vehicle (0.5% methylcellulose). A solution of carrageenan (0.1 ml, 1.0% w/v in 0.9% of normal saline) was injected into the subplanter region of the left hind paw under light ether anaesthesia 1 h after oral administration (p.o.) of the test compound (at a dose level of 25 mg/kg body weight). The paw volume was measured at hourly interval for 5 h (0, 1, 3 and 5 h) and the percent inhibition of oedema was calculated using formula: %Inhibition=(Vt−Vo)control−(Vt−Vo)tested compound /(Vt−Vo)control×100 where, • Vo = volume of oedema at zero time interval. • Vt = volume of oedema at specific time interval.

[4] = system: gastric mucosa (stomach lesions); assay: Ulcerogenic effect; type: in vivo; conditions: 25 mg/kg p.o. once a day for three days, rats
Experimental: The lead compound D1 and the newly synthesised compound 6p were subjected to in vivo testing to measure their ulcerogenic effect in comparison to celecoxib and ibuprofen. Male albino rats (220–250 g) divided into 5 groups (control, D1, 6p, ibuprofen and celecoxib group) of five rats each. The groups with D1, 6p, ibuprofen, and celecoxib were administered oral administration (p.o.) 25 mg/kg in a vehicle of 0.5% methylcellulose, respectively. The negative control group was treated with the same vehicle (0.5% methylcellulose). All groups were orally administered once a day for three consecutive days. Animals were sacrificed by diethyl ether 6 h after the last dose and the stomach was removed. An opening at the greater curvature was made and the stomach was cleaned by washing with cold saline and inspected with a three-time magnifying lens for any evidence of hyperaemia, haemorrhage, definite haemorrhagic erosion, or ulcer. An arbitrary scale was used to calculate the ulcer index which indicates the severity of the stomach lesions The % ulceration for each group was calculated as follows: % Ulceration = Number of animals bearing ulcer in a group/Total number of animals in the same group ×100.

| SMILES | viability at 24 h, 30 µM [1] [%] | melting point [°C] | viability at 24 h, 10 µM [1] [%] | also measured |
| --- | --- | --- | --- | --- |
| CCCCn1c(=O)c2nnc(C(N)=O)n2c2ccccc21 [6a, 5-butyl-4-oxo-4,5-dihydro-[1,2, 4]triazolo[4,3-a]quinoxaline-1-carboxamide] | 92.3 ± 1.53 | 262 to 264 |  |  |
| CCCCCn1c(=O)c2nnc(C(N)=O)n2c2ccccc21 [6b, 5-pentyl-4-oxo-4,5-dihydro-[1,2, 4]triazolo[4,3-a]quinoxaline-1-carboxamide] | 98 ± 1.1 | 232 to 234 |  |  |
| CCCCCCn1c(=O)c2nnc(C(N)=O)n2c2ccccc21 [6c, 5-hexyl-4-oxo-4,5-dihydro-[1,2, 4]triazolo[4,3-a]quinoxaline-1-carboxamide] | 99.11 ± 0.69 | 239 to 241 |  |  |
| CCCCCCCn1c(=O)c2nnc(C(N)=O)n2c2ccccc21 [6d, 5-heptyl-4-oxo-4,5-dihydro-[1,2, 4]triazolo[4,3-a]quinoxaline-1-carboxamide] | 81 ± 1.1 | 231 to 233 |  |  |
| CCCCCCCCn1c(=O)c2nnc(C(N)=O)n2c2ccccc21 [6e, 5-octyl-4-oxo-4,5-dihydro-[1,2, 4]triazolo[4,3-a]quinoxaline-1-carboxamide] | 99.5 ± 2.3 | 230 to 232 |  | anti-inflammatory activity (NO) within 5-alkyl derivatives 6a–6f ([2]; SAR ranking): the most active |
| CCCCCCCCCn1c(=O)c2nnc(C(N)=O)n2c2ccccc21 [6f, 5-nonyl-4-oxo-4,5-dihydro-[1,2, 4]triazolo[4,3-a]quinoxaline-1-carboxamide] | 60 ± 3.4 | 236 to 238 | 99.2 ± 1.65 |  |
| NC(=O)c1nnc2c(=O)n(Cc3ccccc3)c3ccccc3n12 [6g, 5-benzyl-4-oxo-4,5-dihydro-[1,2, 4]triazolo[4,3-a]quinoxaline-1-carboxamide] | 85 ± 1 | 268 to 270 |  |  |
| NC(=O)c1nnc2c(=O)n(Cc3ccccc3F)c3ccccc3n12 [6h, 5-(2-fluorobenzyl)-4-oxo-4,5-dihydro-[1,2, 4]triazolo[4,3-a]quinoxaline-1-carboxamide] | 66.7 ± 1.33 | 273 to 275 | 98.5 ± 1.76 |  |
| NC(=O)c1nnc2c(=O)n(Cc3cccc(F)c3)c3ccccc3n12 [6i, 5–(3-fluorobenzyl)-4-oxo-4,5-dihydro-[1,2, 4]triazolo[4,3-a]quinoxaline-1-carboxamide] | 59.3 ± 2.52 | 276 to 278 | 99.5 ± 4.17 |  |
| NC(=O)c1nnc2c(=O)n(Cc3ccc(F)cc3)c3ccccc3n12 [6j, 5-(4-fluorobenzyl)-4-oxo-4,5-dihydro-[1,2, 4]triazolo[4,3-a]quinoxaline-1-carboxamide] | 48 ± 3 | 274 to 276 | 73.5 ± 2.27 |  |
| NC(=O)c1nnc2c(=O)n(Cc3ccccc3Cl)c3ccccc3n12 [6k, 5-(2-chlorobenzyl)-4-oxo-4,5-dihydro-[1,2, 4]triazolo[4,3-a]quinoxaline-1-carboxamide] | 46.3 ± 2.89 | 278 to 280 | 74.6 ± 1.38 |  |
| NC(=O)c1nnc2c(=O)n(Cc3cccc(Cl)c3)c3ccccc3n12 [6l, 5-(3-chlorobenzyl)-4-oxo-4,5-dihydro-[1,2, 4]triazolo[4,3-a]quinoxaline-1-carboxamide] | 51.7 ± 2.12 | 269 to 271 | 87.9 ± 5.18 |  |
| NC(=O)c1nnc2c(=O)n(Cc3ccc(Cl)cc3)c3ccccc3n12 [6m, 5-(4-chlorobenzyl)-4-oxo-4,5-dihydro-[1,2, 4]triazolo[4,3-a]quinoxaline-1-carboxamide] | 44.7 ± 3.06 | 282 to 284 | 82.2 ± 1.74 |  |
| COc1cccc(Cn2c(=O)c3nnc(C(N)=O)n3c3ccccc32)c1 [6n, 5-(3-methoxybenzyl)-4-oxo-4,5-dihydro-[1,2, 4]triazolo[4,3-a]quinoxaline-1-carboxamide] | 93.33 ± 0.58 | 266 to 268 |  |  |
| COc1ccc(Cn2c(=O)c3nnc(C(N)=O)n3c3ccccc32)cc1 [6o, 5-(4-methoxybenzyl)-4-oxo-4,5-dihydro-[1,2, 4]triazolo[4,3-a]quinoxaline-1-carboamide] | 80.1 ± 1 | 264 to 266 |  |  |
| NC(=O)c1nnc2c(=O)n(Cc3ccc(Cl)cc3Cl)c3ccccc3n12 [6q, 5-(2,4-dichlorobenzyl)-4-oxo-4,5-dihydro-[1,2, 4]triazolo[4,3-a]quinoxaline-1-carboxamide] | 56.7 ± 1.34 | 266 to 268 | 84.7 ± 6.49 |  |
| NC(=O)c1nnc2c(=O)n(Cc3cccc(C(F)(F)F)c3)c3ccccc3n12 [6r, 5-(3-(Trifluoromethyl)benzyl)-4-oxo-4,5-dihydro-[1,2, 4]triazolo[4,3-a]quinox-aline-1-carboxamide] | 99.3 ± 0.6 | 262 to 264 |  |  |
| NC(=O)c1nnc2c(=O)n(Cc3ccc([N+](=O)[O-])cc3)c3ccccc3n12 [6s, 5-(4-nitrobenzyl)-4-oxo-4,5-dihydro-[1,2, 4]triazolo[4,3-a]quinoxaline-1-carb-oxamide] | 80.1 ± 1.34 | 273 to 275 |  |  |
| N#Cc1ccc(Cn2c(=O)c3nnc(C(N)=O)n3c3ccccc32)cc1 [6t, 5-(4-cyanobenzyl)-4-oxo-4,5-dihydro-[1,2, 4]triazolo[4,3-a]quinoxaline-1-carboxamide] | 90.3 ± 1.21 | 298 to 300 |  |  |
| Cc1ccc(-c2cc(C(F)(F)F)nn2-c2ccc(S(N)(=O)=O)cc2)cc1 [Celecoxib] |  |  |  | % of oedema inhibition (% mean ± SD) ([3]; 1 h): 48.09 ± 5.33%; % of oedema inhibition (% mean ± SD) ([3]; 3 h, 25 mg/kg): 58.34 ± 4.08%; % of oedema inhibition (% mean ± SD) ([3]; 3 h, listed as celecoxib, 25 mg/kg): 58.34%; % of oedema inhibition (% mean ± SD) ([3]; 5 h): 41.92 ± 2.05% |
| Cc1cccc(Oc2nn3c(C(N)=O)nnc3c3ccccc23)c1 [D1] | 96.3 ± 1.72 |  |  | % of oedema inhibition (% mean ± SD) ([3]; 1 h): 38.26 ± 2.82%; % of oedema inhibition (% mean ± SD) ([3]; 3 h, 25 mg/kg): 42.81% and 42.81 ± 2.11%; % of oedema inhibition (% mean ± SD) ([3]; 5 h): 28.71 ± 2.92%; inhibition at 10 µM ([2]; Mus musculus, RAW264.7, LPS 1 µg/mL, 24 h, read-out: NO inhibitory activity (% inhibition)): 10.3%; % ulceration [4]: 20% |
| CC(C)Cc1ccc(C(C)C(=O)O)cc1 (stereo not shown) [Ibuprofen] |  |  |  | % of oedema inhibition (% mean ± SD) ([3]; 1 h): 31.92 ± 5.76%; % of oedema inhibition (% mean ± SD) ([3]; 3 h, 25 mg/kg): 39.30 ± 4.86%; % of oedema inhibition (% mean ± SD) ([3]; 3 h, listed as ibuprofen, 25 mg/kg): 39.30%; % of oedema inhibition (% mean ± SD) ([3]; 5 h): 25.29 ± 3.43% |
